Assay results reported in ChEMBL document CHEMBL6092186, “Semisynthetic Ecdysteroid Cinnamate Esters and tert-Butyl Oxime Ether Derivatives with Trypanocidal Activity” (J Nat Prod, 2024).
Blank lines part the entries; values can stand above or below the compound they belong to. The source made the active and inactive calls. No cut-off for these calls is given here.

How the values were obtained:
Trypanosoma cruzi [1] = experiment: Anti-trypanosomal activity against Trypanosoma cruzi epimastigotes assessed as inhibition of parasitic proliferation at 5 uM incubated for 72 hrs by XTT assay relative to control; type: functional
CHO = experiment: Cytotoxicity against CHO cells at 5 uM incubated for 72 hrs by MTT assay; type: toxicity, cell-based, Cricetulus griseus; conditions: chinese hamster
Trypanosoma cruzi [2] = experiment: Trypanocidal activity against Trypanosoma cruzi epimastigotes incubated for 24 hrs by Neubauer chamber method; type: functional, organism-based
Trypanosoma = experiment: Anti-trypanosomal activity against Trypanosoma; type: functional, organism-based

SMILES: CC(C)(O)CC[C@@H](O)[C@](C)(O)[C@H]1CC=C2C3=C/C(=N/OC(C)(C)C)[C@@H]4C[C@@H](O)[C@@H](OC(=O)/C=C/c5ccccc5)C[C@]4(C)[C@H]3CC[C@@]21C
- inhibition at 5 µM (Trypanosoma cruzi [1]): ≥ 30%

SMILES: CC(C)(O)CC[C@@H](O)[C@](C)(O)[C@H]1CC=C2C3=C/C(=N\OC(C)(C)C)[C@@H]4C[C@@H](O)[C@@H](O)C[C@]4(C)[C@H]3CC[C@@]21C
- inhibition (Trypanosoma cruzi [1]): inactive

SMILES: CC(C)(O)CC[C@@H](OC(=O)/C=C/c1ccccc1)[C@](C)(O)[C@H]1CC[C@@]2(O)C3=CC(=O)[C@@H]4C[C@@H](O)[C@@H](OC(=O)/C=C/c5ccccc5)C[C@]4(C)[C@H]3CC[C@]12C
- Activity (CHO): Non-toxic

SMILES: CC(C)(O)CC[C@H]1OC(C)(C)O[C@]1(C)[C@H]1CC[C@@]2(O)C3=C/C(=N\OC(C)(C)C)[C@@H]4C[C@H]5OC(C)(C)O[C@H]5C[C@]4(C)[C@H]3CC[C@]12C
- Activity (CHO): Non-toxic

SMILES: CC(C)(O)CC[C@@H](O)[C@](C)(O)[C@H]1CC=C2C3=C/C(=N\OC(C)(C)C)[C@@H]4C[C@@H](O)[C@@H](OC(=O)/C=C/c5ccccc5)C[C@]4(C)[C@H]3CC[C@@]21C
- inhibition at 5 µM (Trypanosoma cruzi [1]): ≥ 30%

SMILES: CCCCCOC(=O)/C=C/c1ccc(O)cc1
- IC50 (Trypanosoma cruzi [2]): ~5 µM

SMILES: CC(C)(O)CC[C@@H](OC(=O)/C=C/c1ccccc1)[C@](C)(O)[C@H]1CC[C@@]2(O)C3=CC(=O)[C@@H]4C[C@@H](OC(=O)/C=C/c5ccccc5)[C@@H](O)C[C@]4(C)[C@H]3CC[C@]12C
- Activity (CHO): Non-toxic

- IC50 (Trypanosoma): > 600 µM
SMILES: COc1ccc(/C=C/C(=O)O)c(OC)c1

- IC50 (Trypanosoma): > 600 µM
SMILES: COc1cc(/C=C/C(=O)O)cc(OC)c1OC [SINAPIC ACID METHYL ETHER]

- IC50 (Trypanosoma): > 600 µM
SMILES: COc1ccc(/C=C/C(=O)O)cc1 [4-METHOXYCINNAMIC ACID]

SMILES: CC(C)(O)CC[C@@H](O)[C@](C)(O)[C@H]1CC=C2C3=C/C(=N/OC(C)(C)C)[C@@H]4C[C@@H](O)[C@@H](O)C[C@]4(C)[C@H]3CC[C@@]21C
- inhibition (Trypanosoma cruzi [1]): inactive

SMILES: CC(C)(O)CC[C@H]1OC(C)(C)O[C@]1(C)[C@H]1CC=C2C3=C/C(=N/OC(C)(C)C)[C@@H]4C[C@H]5OC(C)(C)O[C@H]5C[C@]4(C)[C@H]3CC[C@@]21C
- Activity (CHO): Non-toxic

SMILES: CC(C)(O)CC[C@@H](OC(=O)/C=C/c1ccccc1)[C@](C)(O)[C@H]1CC=C2C3=C/C(=N\OC(C)(C)C)[C@@H]4C[C@@H](OC(=O)/C=C/c5ccccc5)[C@@H](OC(=O)/C=C/c5ccccc5)C[C@]4(C)[C@H]3CC[C@@]21C
- inhibition at 5 µM (Trypanosoma cruzi [1]): ≥ 30%

SMILES: CC(C)(O)CC[C@@H](OC(=O)/C=C/c1ccccc1)[C@](C)(O)[C@H]1CC=C2C3=C/C(=N\OC(C)(C)C)[C@@H]4C[C@@H](O)[C@@H](OC(=O)/C=C/c5ccccc5)C[C@]4(C)[C@H]3CC[C@@]21C
- inhibition at 5 µM (Trypanosoma cruzi [1]): ≥ 30%
